# Test results published in patent US20150352075A1, “Treatment of Alzheimer's and Cognitive Impairment With Andrographolides” (INNOBIOSCIENCE, LLC, priority 2013, published 2015).
# Legend:
# [1] = system: GSK-3β; assay: Immunoblot of GSK-3β phosphorylation state and β-catenin in Wt hippocampal slices; type: cell-based, mice
# Method: The hippocampus and cortex of treated or control transgenic mice were dissected on ice and immediately processed has detailed previously (Toledo & Inestrosa 2010). Briefly, hippocampal and cortical tissues were homogenized in RIPA buffer (10 mM Tris-Cl, pH 7.4, EDTA 5 mM, 1% NP-40, 1% sodium deoxycholate, and 1% SDS) supplemented with a protease inhibitor mixture and phosphatase inhibitors (25 mMNaF, 100 mM Na3VO4 and 30 μM Na4P2O7) using a Potter homogenizator and then passed sequentially through different caliber syringes. Protein samples were centrifuged at 14000 rpm at 4° C. twice for 15 min Protein concentrations were determined using the BCA Protein Assay Kit (Pierce). Samples were resolved by SDS-PAGE followed by immunoblotting on PVDF membranes. Western blot assays were carried out as previously described (Inestrosa et al 2013; Toledo & Inestrosa 2010).
# Hippocampal slices were prepared according to standard procedures previously described (Cerpa et al 2010; VarelaNallar et al 2010). Briefly, transverse slices (350 μm) from the dorsal hippocampus were cut under cold artificial cerebrospinal fluid (ACSF, in mM: 124 NaCl, […], 10 D-glucose, 2.69 KCl, 1.25 KH2PO4 2.5 CaCl2, 1.3 MgSO4, y 2.60 NaHPO4) using a V ibratome (Leica VT 1000s, Germany) and incubated in ACSF for 1 h at room temperature. In all experiments, 10 μM picrotoxin (PTX) was added to suppress inhibitory GABAA transmission (Cuitino et al 2010). Slices were transferred to an experimental chamber (2 ml), superfused (3 ml/min, at 20-22° C.) with gassed ACSF and visualized by trans-illumination with a binocular microscope (MSZ-10, Nikon, Melville, N.Y.). […] The paired pulse facilitation index was calculated by ((R2−R1)/R1), where R1 and R2 were the peak amplitudes of the first and second fEPSP respectively. […] Evoked postsynaptic responses were analyzed off-line, using an analysis software (pClampfit, Molecular Devices), which allowed visual detection of events, computing only those events that exceeded and arbitrary threshold.
# [2] = Side effects in treated animals; conditions: in vivo
# [3] = system: HEK293T cells; assay: TOPflash/FOPflash luciferase reporter assay; type: cell-based
# Method: 150,000 HEK293T cells were seeded in triplicate per condition and kept for 24 hours at 37° C. with 5% CO2. The cultures were transfected with TOPflash or FOPflash (400 ng), which are firefly-luciferase reporter DNA constructs (Milipore), using LipofectAMINE 2000 (Invitrogen). To control for transfection pRL-TK (10 ng) was included in all transfections. […] Values were normalized by the renilla value from the same well. To statistically compare treatments ANOVA was used.
# [4] = system: Wnt target genes in cultured hippocampal neurons; assay: PCR array of Wnt target genes in hippocampal neurons; type: cell-based, rat
# Method: Primary culture of rat hippocampal neurons. […] PCR-ARRAY. RNA from hippocampal neurons was extracted using Trizol. Quantification and purity of RNA preparations were checked by absorbance using Nanodrop ND-2000. Only preparations with a 260/280 nm ratio ≧1.8, a 260/230 nm ratio ≧1.7 and no sign of RNA degradations, verified by agarose gel electrophoresis with Gel Red™ were used. Genomic DNA was degraded. Using RT2First-Strand cDNA Synthesis kit (SuperArray), 1 ng total RNA was reverse transcribed and then real-time PCR was performed by adding cDNA directly to PCR Master Mix, containing SYBR Green and ROX. The mixtures were then aliquoted into a 96-well PCR array plates, which profiles the expression of 84 Wnt target genes from rat. The PCR was run on ABI StepOnePlus, with 1 cycle of 10 min at 95° C. followed by 40 cycles of 15s at 95° C. and 1 min at 60° C. […] Treatment of neuronal cultures. Primary hippocampal cultures of neurons 14 DIV were washed twice in neurobasal medium and maintained for 1 hour. Next ANDRO (10 μM) and 6-BIO (10 μM) were added to different time periods.
# [5] = system: APPswe/PS-1 double transgenic mice; assay: Classical Morris Water Maze test; type: in vivo; conditions: 12 month-old APPswe/PS-1 mice, 2.0 mg/kg IP three times per week, four weeks, vs Tg control
# [6] = system: APPswe/PS-1 double transgenic mice; assay: Tau phosphorylation (PHF-1, AT8) by immunoblot and immunohistochemistry in treated mice; type: in vivo
# [7] = Wt hippocampal slices, 10 μM ANDRO for 1 hr (FIG. 5)
structure (smiles),measurement,setting,value
"C=C1CC[C@@H]2C(C)(CO)C(O)CC[C@@]2(C)C1C/C=C1/C(=O)OCC1O (stereo in doubt) [ANDRO, 3-(2-(Decahydro-6-hydroxy-5-(hydroxymethyl)-5,8a-dimethyl-2-methylenenaphthyl)ethylidene)dihydro-4-hydroxyfuran-2(3H)-one]",levels of β-catenin,[1]; Wt hippocampal slices incubated with ANDRO,increase in the levels of β-catenin
same,active form of GSK-3β (Tyr-216 phosphorylation),[1]; [7],reduction of the active form (Tyr-216)
same,inactive form of GSK-3β (Ser-9 phosphorylation),[1]; [7],increase in the levels of the inactive form of GSK-3P (Ser-9)
same,side effects in animals,[2],seems not to cause side effects in animals
same,FOPflash reporter activity,"[3]; 10 μM, 24 h",not in the FOPflash
same,TOPflash reporter activity,"[3]; 10 μM, 24 h",significant increase in the TOPflash
same,increase of luciferase reporter over control,"[3]; HEK293T, TOPflash",4 fold
same,Cdh-1 gene expression,[4],differential expression induced by ANDRO
same,number of Wnt target genes specifically modulated,"[4]; 9 h, of the 86 genes analyzed",3 genes
same,number of modulated Wnt target genes shared by both treatments,"[4]; 9 h, of the 86 genes analyzed",4
same,Ets2 gene expression,[4]; after Bonferroni correction,down-regulation of Ets2 gene
same,escape latency,[5],significantly lower escape latency values
same,number of AT8-positive neurons next to amyloid deposits,"[6]; 6 month-old APPswe/PS-1, circular area surrounding plaques",clear decrease in the number of AT8-positive neurons next to amyloid deposits
same,total AT8-positive cells outside the circular area around the plaques,[6]; hippocampus,decrease in the number of these cells
same,PHF-1- and AT8-positive tau levels (immunoblot),"[6]; hippocampus of 6 month-old APPswe/PS-1 mice, vs untreated",reduction in PHF-1- and AT8-positive tau levels
